Results taken from ChEMBL document CHEMBL5131402, “Design, synthesis, and biological evaluation of phenyl thiazole-based AR-V7 degraders” (Bioorg Med Chem Lett, 2022).
≈ marks a conversion by molar mass, not a printed value.

Tests used:
[1] = target: von Hippel-Lindau disease tumor suppressor/Androgen receptor (Homo sapiens, UniProt P10275+P40337); experiment: PROTAC activity at VHL/AR-V7 (unknown origin) expressed in human 22Rv1 cells assessed as induction of AR-V7 degradation; format: cell-based
von Hippel-Lindau disease tumor suppressor/Androgen receptor, sequence (P10275 whole entry, looked up, stated change not applied): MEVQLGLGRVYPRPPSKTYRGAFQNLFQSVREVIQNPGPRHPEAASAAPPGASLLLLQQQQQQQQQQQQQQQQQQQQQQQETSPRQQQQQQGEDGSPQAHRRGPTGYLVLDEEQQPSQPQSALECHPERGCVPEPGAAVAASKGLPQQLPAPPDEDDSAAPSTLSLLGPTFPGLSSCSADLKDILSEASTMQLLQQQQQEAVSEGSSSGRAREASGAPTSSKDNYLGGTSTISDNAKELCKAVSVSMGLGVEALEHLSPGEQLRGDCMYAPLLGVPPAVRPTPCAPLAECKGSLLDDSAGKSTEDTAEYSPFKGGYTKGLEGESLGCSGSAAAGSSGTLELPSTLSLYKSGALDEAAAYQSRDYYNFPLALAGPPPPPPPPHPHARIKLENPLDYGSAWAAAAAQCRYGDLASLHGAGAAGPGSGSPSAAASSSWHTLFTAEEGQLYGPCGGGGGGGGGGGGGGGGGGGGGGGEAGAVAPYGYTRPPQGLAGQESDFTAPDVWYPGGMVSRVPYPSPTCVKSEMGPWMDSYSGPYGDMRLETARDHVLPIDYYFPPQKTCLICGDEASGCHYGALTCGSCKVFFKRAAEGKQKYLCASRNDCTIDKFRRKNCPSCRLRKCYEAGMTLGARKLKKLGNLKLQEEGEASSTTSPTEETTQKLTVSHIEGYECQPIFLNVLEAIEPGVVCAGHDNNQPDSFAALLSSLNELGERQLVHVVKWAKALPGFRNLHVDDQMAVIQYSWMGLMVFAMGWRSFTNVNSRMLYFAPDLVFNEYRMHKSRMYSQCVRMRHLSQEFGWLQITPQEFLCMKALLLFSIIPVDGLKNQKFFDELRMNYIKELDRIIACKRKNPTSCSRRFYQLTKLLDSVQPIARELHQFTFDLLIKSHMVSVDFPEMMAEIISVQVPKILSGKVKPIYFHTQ
von Hippel-Lindau disease tumor suppressor/Androgen receptor, sequence (P40337 whole entry, looked up, stated change not applied): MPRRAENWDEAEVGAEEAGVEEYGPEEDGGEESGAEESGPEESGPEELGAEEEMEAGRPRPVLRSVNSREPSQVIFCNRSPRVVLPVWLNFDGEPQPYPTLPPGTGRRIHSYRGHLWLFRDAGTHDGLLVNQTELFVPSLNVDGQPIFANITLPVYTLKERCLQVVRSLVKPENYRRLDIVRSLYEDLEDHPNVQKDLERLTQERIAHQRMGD

CWR22R [2] = experiment: Antiproliferative activity against human 22Rv1 cells expressing […]; format: functional, cell-based
[3] = test system: von Hippel-Lindau disease tumor suppressor/Androgen receptor (Homo sapiens), P10275+P40337 [UNDEFINED MUTATION]; experiment: PROTAC activity at VHL/AR-V7 (unknown origin) expressed in human 22Rv1 cells assessed as induction of AR-V7 degradation my measuring maximum efficacy relative to control; format: cell-based
von Hippel-Lindau disease tumor suppressor/Androgen receptor (Homo sapiens), P10275+P40337 [UNDEFINED MUTATION], sequence (P10275 whole entry, looked up, stated change not applied): as the sequence (P10275 whole entry, looked up, stated change not applied) above
von Hippel-Lindau disease tumor suppressor/Androgen receptor (Homo sapiens), P10275+P40337 [UNDEFINED MUTATION], sequence (P40337 whole entry, looked up, stated change not applied): as the sequence (P40337 whole entry, looked up, stated change not applied) above

CWR22R [4] = experiment: Antiproliferative activity against human 22Rv1 cells expressing […] assessed as inhibition of cell growth at 10 uM relative to control; format: functional
[5] = Cmax in CD1 mouse at 1 mg/kg, iv administered as single dose; format: ADME, organism-based; design: dose 1 mg/kg, route iv; settings: in vivo
[6] = Terminal half life in CD1 mouse at 1 mg/kg, iv administered as single dose; format: ADME, organism-based; settings: in vivo, read-out: beta t1/2 (converted)
[7] = AUC (0 to infinity) in CD1 mouse at 1 mg/kg, iv administered as single dose; format: ADME, organism-based; design: time infinity, dose 1 mg/kg, route iv; settings: in vivo
[8] = Tmax in CD1 mouse at 30 mg/kg, po administered as single dose; format: ADME, organism-based; settings: in vivo
[9] = Cmax in CD1 mouse at 30 mg/kg, po administered as single dose; format: ADME, organism-based; design: dose 30 mg/kg, route po; settings: in vivo
[10] = Terminal half life in CD1 mouse at 30 mg/kg, po administered as single dose; format: ADME, organism-based; settings: in vivo, read-out: beta t1/2 (converted)
[11] = AUC (0 to infinity) in CD1 mouse at 30 mg/kg, po administered as single dose; format: ADME, organism-based; design: time infinity, dose 30 mg/kg, route po; settings: in vivo
[12] = Oral bioavailability in CD1 mouse at 30 mg/kg administered as single dose; format: ADME, organism-based; settings: in vivo
[13] = Tmax in CD1 mouse at 100 mg/kg, po administered as single dose; format: ADME, organism-based; settings: in vivo
[14] = Cmax in CD1 mouse at 100 mg/kg, po administered as single dose; format: ADME, organism-based; design: dose 100 mg/kg, route po; settings: in vivo
[15] = Terminal half life in CD1 mouse at 100 mg/kg, po administered as single dose; format: ADME, organism-based; settings: in vivo, read-out: beta t1/2 (converted)
[16] = AUC (0 to infinity) in CD1 mouse at 100 mg/kg, po administered as single dose; format: ADME, organism-based; design: time infinity, dose 100 mg/kg, route po; settings: in vivo
[17] = Oral bioavailability in CD1 mouse at 100 mg/kg administered as single dose; format: ADME, organism-based; settings: in vivo
[18] = Aqueous solubility of the compound at pH.7.4; format: physicochemical
[19] = Metabolic stability in mouse liver microsomes assessed as parent compound remaining measured at 1 hr; format: ADME, Microsome; settings: read-out: Stability
CWR22R [20] = experiment: Antiproliferative activity against human 22Rv1 cells expressing […] assessed as maximum efficacy relative to control; format: functional

DC50 [1] [µM] | SMILES | EC50 (CWR22R [2]) [µM] | other results
> 10 | Cc1ncsc1-c1ccc([C@H](C)NC(=O)[C@@H]2C[C@@H](O)CN2C(=O)[C@@H](NC(=O)CCCCOc2ccc(-c3csc(N4CC5CCC(C4)O5)n3)cc2)C(C)(C)C)cc1 | > 10 | 
1 | Cc1ncsc1-c1ccc([C@H](C)NC(=O)[C@@H]2C[C@@H](O)CN2C(=O)[C@@H](NC(=O)CCCCCOc2ccc(-c3csc(N4CCOCC4)n3)cc2)C(C)(C)C)cc1 |  | Emax [3]: 60%
 | Cc1ncsc1-c1ccc([C@H](C)NC(=O)[C@@H]2C[C@@H](O)CN2C(=O)[C@@H](NC(=O)CCCCOc2ccc(-c3csc(N4CCOCC4)n3)c(F)c2)C(C)(C)C)cc1 | > 10 | 
> 10 | Cc1ncsc1-c1ccc([C@H](C)NC(=O)[C@@H]2C[C@@H](O)CN2C(=O)[C@@H](NC(=O)COc2ccc(-c3csc(N4CCOCC4)n3)cc2)C(C)(C)C)cc1 |  | 
 | Cc1ncsc1-c1ccc([C@H](C)NC(=O)[C@@H]2C[C@@H](O)CN2C(=O)[C@@H](NC(=O)CCCCOc2ccc(-c3csc(N4CC5(CCOCC5)C4)n3)cc2)C(C)(C)C)cc1 | > 10 | 
 | Cc1ncsc1-c1ccc([C@H](C)NC(=O)[C@@H]2C[C@@H](O)CN2C(=O)[C@@H](NC(=O)CCCCOc2ccc(-c3csc(N4CCOCC4)n3)cc2N)C(C)(C)C)cc1 | > 10 | 
 | CCC1COCCN1c1nc(-c2ccc(OCCCCC(=O)N[C@H](C(=O)N3C[C@H](O)C[C@H]3C(=O)N[C@@H](C)c3ccc(-c4scnc4C)cc3)C(C)(C)C)cc2)cs1 (stereo partly specified) | > 10 | 
 | Cc1ncsc1-c1ccc(CNC(=O)[C@@H]2C[C@@H](O)CN2C(=O)[C@@H](NC(=O)C2(F)CC2)C(C)(C)C)c(OCCCCOc2ccc(-c3csc(N4CCOCC4)n3)cc2)c1 | > 10 | 
 | Cc1ncsc1-c1ccc(CNC(=O)[C@@H]2C[C@@H](O)CN2C(=O)[C@@H](NC(=O)C2(F)CC2)C(C)(C)C)c(OCCCOc2ccc(-c3csc(N4CCOCC4)n3)cc2)c1 | > 10 | 
 | Cc1ncsc1-c1ccc(CNC(=O)[C@@H]2C[C@@H](O)CN2C(=O)[C@@H](NC(=O)C2(F)CC2)C(C)(C)C)c(OCCOc2ccc(-c3csc(N4CCOCC4)n3)cc2)c1 | > 10 | 
 | Cc1ncsc1-c1ccc([C@H](C)NC(=O)[C@@H]2C[C@@H](O)CN2C(=O)[C@@H](NC(=O)CCCCOc2ccc(-c3csc(N4CCC5(COC5)C4)n3)cc2)C(C)(C)C)cc1 | > 10 | 
 | Cc1ncsc1-c1ccc([C@H](C)NC(=O)[C@@H]2C[C@@H](O)CN2C(=O)[C@@H](NC(=O)CCCCOc2ccc(-c3csc(N4CCOCC4)n3)cc2[N+](=O)[O-])C(C)(C)C)cc1 | > 10 | 
 | Cc1ncsc1-c1ccc(CNC(=O)[C@@H]2C[C@@H](O)CN2C(=O)[C@@H](NC(=O)C2(F)CC2)C(C)(C)C)c(OCCCCCCOc2ccc(-c3csc(N4CCOCC4)n3)cc2)c1 | > 10 | 
 | Cc1ncsc1-c1ccc([C@H](C)NC(=O)[C@@H]2C[C@@H](O)CN2C(=O)[C@@H](NC(=O)CCCCOc2ccc(-c3csc(N4CC5(COC5)C4)n3)cc2)C(C)(C)C)cc1 | > 10 | 
 | Cc1ncsc1-c1ccc([C@H](C)NC(=O)[C@@H]2C[C@@H](O)CN2C(=O)[C@@H](NC(=O)CCCCOc2ccc(-c3csc(N4CC(C)OC(C)C4)n3)cc2)C(C)(C)C)cc1 (stereo partly specified) | > 10 | 
 | Cc1ncsc1-c1ccc(CNC(=O)[C@@H]2C[C@@H](O)CN2C(=O)[C@@H](NC(=O)C2(F)CC2)C(C)(C)C)c(OCCCCCCCCOc2ccc(-c3csc(N4CCOCC4)n3)cc2)c1 | > 10 | 
 | Cc1ncsc1-c1ccc([C@H](C)NC(=O)[C@@H]2C[C@@H](O)CN2C(=O)[C@@H](NC(=O)CCCCOc2ccc(-c3csc(N4CC(C)OCC4C)n3)cc2)C(C)(C)C)cc1 (stereo partly specified) | > 10 | 
 | Cc1ncsc1-c1ccc([C@H](C)NC(=O)[C@@H]2C[C@@H](O)CN2C(=O)[C@@H](NC(=O)CCCCOc2ccc(-c3csc(N4CCOC(C)C4)n3)cc2)C(C)(C)C)cc1 (stereo partly specified) | > 10 | 
> 10 | COc1c(-c2csc(N3CCOCC3)n2)ccc(OCCCCC(=O)N[C@H](C(=O)N2C[C@H](O)C[C@H]2C(=O)N[C@@H](C)c2ccc(-c3scnc3C)cc2)C(C)(C)C)c1F | > 10 | 
> 10 | Cc1ncsc1-c1ccc([C@H](C)NC(=O)[C@@H]2C[C@@H](O)CN2C(=O)[C@@H](NC(=O)CCCCOc2ccc(-c3csc(N4CCOC(C)(C)C4)n3)cc2)C(C)(C)C)cc1 |  | inhibition at 10 µM (CWR22R [4]): 66%
0.32 | Cc1ncsc1-c1ccc([C@H](C)NC(=O)[C@@H]2C[C@@H](O)CN2C(=O)[C@@H](NC(=O)CCCCOc2ccc(-c3csc(N4CCOCC4)n3)cc2)C(C)(C)C)cc1 | 0.88 | Cmax [5]: 2.9 µg/mL; half-life [6]: 54 min; AUC(0-inf) [7]: 1.29 µg·h/mL; Tmax [8]: 45 min; Cmax [9]: 0.773 µg/mL; half-life [10]: 60 min; AUC(0-inf) [11]: 1.98 µg·h/mL; bioavailability [12]: 5%; Tmax [13]: 79.8 min; Cmax [14]: 1.81 µg/mL; half-life [15]: 42 min; AUC(0-inf) [16]: 5.95 µg·h/mL; bioavailability [17]: 4.6%; solubility [18]: 3.5 µM (≈ 2.76 µg/mL); remaining at 1 h [19]: 6%; Emax [3]: 67%; Emax (CWR22R [20]): 94%
> 10 | c1ccc(-c2csc(N3CCOCC3)n2)cc1 |  | 
 | Cc1ncsc1-c1ccc([C@H](C)NC(=O)[C@@H]2C[C@@H](O)CN2C(=O)[C@@H](NC(=O)CCCCOc2ccc(-c3csc(N4CCOCC4)n3)cc2F)C(C)(C)C)cc1 | > 10 | 
0.35 | Cc1ncsc1-c1ccc([C@H](C)NC(=O)[C@@H]2C[C@@H](O)CN2C(=O)[C@@H](NC(=O)CCCOc2ccc(-c3csc(N4CCOCC4)n3)cc2)C(C)(C)C)cc1 | 1.36 | solubility [18]: < 2 µM; remaining at 1 h [19]: 5%; Emax [3]: 53%; Emax (CWR22R [20]): 90%
 | Cc1cc(OCCCCC(=O)N[C@H](C(=O)N2C[C@H](O)C[C@H]2C(=O)N[C@@H](C)c2ccc(-c3scnc3C)cc2)C(C)(C)C)ccc1-c1csc(N2CCOCC2)n1 | > 10 | 
> 10 | Cc1ncsc1-c1ccc([C@H](C)NC(=O)[C@@H]2C[C@@H](O)CN2C(=O)[C@@H](NC(=O)c2ccc(-c3csc(N4CCOCC4)n3)cc2)C(C)(C)C)cc1 |  | 
> 10 | Cc1ncsc1-c1ccc([C@H](C)NC(=O)[C@@H]2C[C@@H](O)CN2C(=O)[C@@H](NC(=O)CCOc2ccc(-c3csc(N4CCOCC4)n3)cc2)C(C)(C)C)cc1 |  | 
> 10 | Cc1ncsc1-c1ccc([C@H](C)NC(=O)[C@@H]2C[C@@H](O)CN2C(=O)[C@@H](NC(=O)CCCCOc2ccc(-c3csc(N4CCOCC4C)n3)cc2)C(C)(C)C)cc1 (stereo partly specified) | > 10 | 
